Results as given in ChEMBL document CHEMBL5038625, “Application of the dual-tail approach for the design and synthesis of novel Thiopyrimidine-Benzenesulfonamide hybrids as selective carbonic anhydrase inhibitors” (Eur J Med Chem, 2022).

Legend:
[1] = biological target: Carbonic anhydrase 9 (Homo sapiens, UniProt Q16790); test: Inhibition of human CA9 preincubated for 15 mins by phenol red dye based stopped flow CO2 hydration assay
[2] = tested on: HL-60; test: Antiproliferative activity against human HL-60 cells assessed as cell growth inhibition at 10 uM incubated for 24 hrs by sulforhodamine B assay; format: functional; settings: read-out: GI
[3] = tested on: NCI-H226; test: Antiproliferative activity against human NCI-H226 cells assessed as cell growth inhibition at 10 uM incubated for 24 hrs by sulforhodamine B assay; format: functional; settings: read-out: GI
[4] = tested on: NCI-H23; test: Antiproliferative activity against human NCI-H23 cells assessed as cell growth inhibition at 10 uM incubated for 24 hrs by sulforhodamine B assay; format: functional; settings: read-out: GI
[5] = tested on: NCI-H522; test: Antiproliferative activity against human NCI-H522 cells assessed as cell growth inhibition at 10 uM incubated for 24 hrs by sulforhodamine B assay; format: functional; settings: read-out: GI
[6] = tested on: LOX IMVI; test: Antiproliferative activity against human LOX IMVI cells assessed as cell growth inhibition at 10 uM incubated for 24 hrs by sulforhodamine B assay; format: functional; settings: read-out: GI
[7] = tested on: UACC-62; test: Antiproliferative activity against human UACC-62 cells assessed as cell growth inhibition at 10 uM incubated for 24 hrs by sulforhodamine B assay; format: functional; settings: read-out: GI
[8] = tested on: SK-OV-3; test: Antiproliferative activity against human SK-OV-3 cells assessed as cell growth inhibition at 10 uM incubated for 24 hrs by sulforhodamine B assay; format: functional; settings: read-out: GI
[9] = tested on: 786-0; test: Antiproliferative activity against human 786-0 cells assessed as cell growth inhibition at 10 uM incubated for 24 hrs by sulforhodamine B assay; format: functional; settings: read-out: GI
[10] = tested on: ACHN; test: Antiproliferative activity against human ACHN cells assessed as cell growth inhibition at 10 uM incubated for 24 hrs by sulforhodamine B assay; format: functional; settings: read-out: GI
[11] = tested on: CAKI-1; test: Antiproliferative activity against human CAKI-1 cells assessed as cell growth inhibition at 10 uM incubated for 24 hrs by sulforhodamine B assay; format: functional; settings: read-out: GI
[12] = tested on: RXF 393; test: Antiproliferative activity against human RXF 393 cells assessed as cell growth inhibition at 10 uM incubated for 24 hrs by sulforhodamine B assay; format: functional; settings: read-out: GI
[13] = tested on: UO-31; test: Antiproliferative activity against human UO-31 cells assessed as cell growth inhibition at 10 uM incubated for 24 hrs by sulforhodamine B assay; format: functional; settings: read-out: GI
[14] = tested on: MCF7; test: Antiproliferative activity against human MCF7 cells assessed as cell growth inhibition at 10 uM incubated for 24 hrs by sulforhodamine B assay; format: functional; settings: read-out: GI
[15] = tested on: MDA-MB-468; test: Antiproliferative activity against human MDA-MB-468 cells assessed as cell growth inhibition at 10 uM incubated for 24 hrs by sulforhodamine B assay; format: functional; settings: read-out: GI
[16] = tested on: MCF7; test: Antiproliferative activity against human MCF7 cells assessed as reduction in cell viability incubated for 24 hrs by sulforhodamine B assay; format: functional, cell-based; settings: MCF7, 24 h
[17] = tested on: T47D; test: Antiproliferative activity against human T47D cells assessed as reduction in cell viability incubated for 24 hrs by sulforhodamine B assay; format: functional, cell-based
[18] = tested on: MDA-MB-231; test: Antiproliferative activity against human MDA-MB-231 cells assessed as reduction in cell viability incubated for 24 hrs by sulforhodamine B assay; format: functional, cell-based; settings: MDA-MB-231, 24 h
[19] = tested on: MDA-MB-231; test: Antiproliferative activity against human MDA-MB-231 cells assessed as cell growth inhibition at 10 uM incubated for 24 hrs by sulforhodamine B assay; format: functional; settings: read-out: GI
[20] = tested on: SF-539; test: Antiproliferative activity against human SF-539 cells assessed as cell growth inhibition at 10 uM incubated for 24 hrs by sulforhodamine B assay; format: functional; settings: read-out: GI
[21] = tested on: CCRF-CEM; test: Antiproliferative activity against human CCRF-CEM cells assessed as cell growth inhibition at 10 uM incubated for 24 hrs by sulforhodamine B assay; format: functional; settings: read-out: GI
[22] = tested on: K562; test: Antiproliferative activity against human K562 cells assessed as cell growth inhibition at 10 uM incubated for 24 hrs by sulforhodamine B assay; format: functional; settings: read-out: GI
[23] = tested on: MOLT-4; test: Antiproliferative activity against human MOLT-4 cells assessed as cell growth inhibition at 10 uM incubated for 24 hrs by sulforhodamine B assay; format: functional; settings: read-out: GI
[24] = tested on: RPMI-8226; test: Antiproliferative activity against human RPMI-8226 cells assessed as cell growth inhibition at 10 uM incubated for 24 hrs by sulforhodamine B assay; format: functional; settings: read-out: GI
[25] = tested on: SR; test: Antiproliferative activity against human SR cells assessed as cell growth inhibition at 10 uM incubated for 24 hrs by sulforhodamine B assay; format: functional; settings: read-out: GI
[26] = tested on: A549; test: Antiproliferative activity against human A549 cells assessed as cell growth inhibition at 10 uM incubated for 24 hrs by sulforhodamine B assay; format: functional; settings: read-out: GI
[27] = tested on: EKVX; test: Antiproliferative activity against human EKVX cells assessed as cell growth inhibition at 10 uM incubated for 24 hrs by sulforhodamine B assay; format: functional; settings: read-out: GI
[28] = tested on: HOP-92; test: Antiproliferative activity against human HOP-92 cells assessed as cell growth inhibition at 10 uM incubated for 24 hrs by sulforhodamine B assay; format: functional; settings: read-out: GI
[29] = Antiproliferative activity against human […] cells assessed as cell growth inhibition at 10 uM incubated for 24 hrs by sulforhodamine B assay; format: functional; settings: read-out: GI
[30] = tested on: NCI-H460; test: Antiproliferative activity against human NCI-H460 cells assessed as cell growth inhibition at 10 uM incubated for 24 hrs by sulforhodamine B assay; format: functional; settings: read-out: GI
[31] = tested on: HCT-116; test: Antiproliferative activity against human HCT-116 cells assessed as cell growth inhibition at 10 uM incubated for 24 hrs by sulforhodamine B assay; format: functional; settings: read-out: GI
[32] = tested on: HCT-15; test: Antiproliferative activity against human HCT-15 cells assessed as cell growth inhibition at 10 uM incubated for 24 hrs by sulforhodamine B assay; format: functional; settings: read-out: GI
[33] = tested on: KM12; test: Antiproliferative activity against human KM12 cells assessed as cell growth inhibition at 10 uM incubated for 24 hrs by sulforhodamine B assay; format: functional; settings: read-out: GI
[34] = tested on: SF-295; test: Antiproliferative activity against human SF-295 cells assessed as cell growth inhibition at 10 uM incubated for 24 hrs by sulforhodamine B assay; format: functional; settings: read-out: GI
[35] = tested on: SNB-19; test: Antiproliferative activity against human SNB-19 cells assessed as cell growth inhibition at 10 uM incubated for 24 hrs by sulforhodamine B assay; format: functional; settings: read-out: GI
[36] = tested on: SNB-75; test: Antiproliferative activity against human SNB-75 cells assessed as cell growth inhibition at 10 uM incubated for 24 hrs by sulforhodamine B assay; format: functional; settings: read-out: GI
[37] = tested on: U-251; test: Antiproliferative activity against human U-251 cells assessed as cell growth inhibition at 10 uM incubated for 24 hrs by sulforhodamine B assay; format: functional; settings: read-out: GI
[38] = tested on: Malme-3M; test: Antiproliferative activity against human Malme-3M cells assessed as cell growth inhibition at 10 uM incubated for 24 hrs by sulforhodamine B assay; format: functional; settings: read-out: GI
[39] = tested on: MDA-MB-435; test: Antiproliferative activity against human MDA-MB-435 cells assessed as cell growth inhibition at 10 uM incubated for 24 hrs by sulforhodamine B assay; format: functional; settings: read-out: GI
[40] = tested on: SK-MEL-5; test: Antiproliferative activity against human SK-MEL-5 cells assessed as cell growth inhibition at 10 uM incubated for 24 hrs by sulforhodamine B assay; format: functional; settings: read-out: GI
[41] = tested on: OVCAR-4; test: Antiproliferative activity against human OVCAR-4 cells assessed as cell growth inhibition at 10 uM incubated for 24 hrs by sulforhodamine B assay; format: functional; settings: read-out: GI
[42] = tested on: OVCAR-8; test: Antiproliferative activity against human OVCAR-8 cells assessed as cell growth inhibition at 10 uM incubated for 24 hrs by sulforhodamine B assay; format: functional; settings: read-out: GI
[43] = tested on: A498; test: Antiproliferative activity against human A498 cells assessed as cell growth inhibition at 10 uM incubated for 24 hrs by sulforhodamine B assay; format: functional; settings: read-out: GI
[44] = tested on: SN12C; test: Antiproliferative activity against human SN12C cells assessed as cell growth inhibition at 10 uM incubated for 24 hrs by sulforhodamine B assay; format: functional; settings: read-out: GI
[45] = tested on: PC-3; test: Antiproliferative activity against human PC-3 cells assessed as cell growth inhibition at 10 uM incubated for 24 hrs by sulforhodamine B assay; format: functional; settings: read-out: GI
[46] = tested on: DU-145; test: Antiproliferative activity against human DU-145 cells assessed as cell growth inhibition at 10 uM incubated for 24 hrs by sulforhodamine B assay; format: functional; settings: read-out: GI
[47] = tested on: Hs-578T; test: Antiproliferative activity against human HS-578T cells assessed as cell growth inhibition at 10 uM incubated for 24 hrs by sulforhodamine B assay; format: functional; settings: read-out: GI
[48] = tested on: BT-549; test: Antiproliferative activity against human BT-549 cells assessed as cell growth inhibition at 10 uM incubated for 24 hrs by sulforhodamine B assay; format: functional; settings: read-out: GI
[49] = tested on: T47D; test: Antiproliferative activity against human T47D cells assessed as cell growth inhibition at 10 uM incubated for 24 hrs by sulforhodamine B assay; format: functional; settings: read-out: GI

With CC(C)c1nc(SCC(=O)c2ccccc2)nc(Nc2ccc(S(N)(=O)=O)cc2)c1C#N the Ki [1] was 0.0966 µM, the inhibition of growth at 10 µM [2] was 5.93% and the inhibition of growth at 10 µM [3] was 11.8%. For the same compound, the inhibition of growth at 10 µM [4] was 13.1%, the inhibition of growth at 10 µM [5] was 10.1% and the inhibition of growth at 10 µM [6] was 16.5%. It also gave an inhibition of growth at 10 µM [7] of 10.2%, an inhibition of growth at 10 µM [8] of 5.58% and an inhibition of growth at 10 µM [9] of 5.2%. The inhibition of growth at 10 µM [10] was 7.34%, the inhibition of growth at 10 µM [11] was 8.76% and the inhibition of growth at 10 µM [12] was 13.8%. The inhibition of growth at 10 µM [13] was 36.3%, the inhibition of growth at 10 µM [14] was 11.4% and the inhibition of growth at 10 µM [15] was 9.86%. For the same compound, the IC50 [16] was 47.6 µM, the IC50 [17] was 46.4 µM and the IC50 [18] was 21 µM. The inhibition of growth at 10 µM [19] was 5.5%.
For COc1ccc(OC)c(-c2nc(SCC(=O)c3ccccc3)nc(Nc3ccc(S(N)(=O)=O)cc3)c2C#N)c1, the Ki [1] was 0.0877 µM, the inhibition of growth at 10 µM [20] was 27.1% and the inhibition of growth at 10 µM [21] was 10.7%. For the same compound, the inhibition of growth at 10 µM [2] was 8.52%, the inhibition of growth at 10 µM [22] was 14.6% and the inhibition of growth at 10 µM [23] was 30.1%. It also gave an inhibition of growth at 10 µM [24] of 18.1%, an inhibition of growth at 10 µM [25] of 22.7% and an inhibition of growth at 10 µM [26] of 10.8%. The inhibition of growth at 10 µM [27] was 11.3%, the inhibition of growth at 10 µM [28] was 52% and the inhibition of growth at 10 µM [3] was 7.28%. The inhibition of growth at 10 µM [29] was 10.1%, the inhibition of growth at 10 µM [30] was 10.9% and the inhibition of growth at 10 µM [5] was 6.74%. For the same compound, the inhibition of growth at 10 µM [31] was 7.67%, the inhibition of growth at 10 µM [32] was 26.3% and the inhibition of growth at 10 µM [33] was 8.89%. The inhibition of growth at 10 µM [34] was 10.3%, the inhibition of growth at 10 µM [35] was 9.28% and the inhibition of growth at 10 µM [36] was 18.4%. It also gave an inhibition of growth at 10 µM [37] of 9.25%, an inhibition of growth at 10 µM [6] of 17.7% and an inhibition of growth at 10 µM [38] of 6.7%. For the same compound, the inhibition of growth at 10 µM [39] was 7.57%, the inhibition of growth at 10 µM [40] was 5.91% and the inhibition of growth at 10 µM [7] was 5.35%. It also gave an inhibition of growth at 10 µM [41] of 14.9%, an inhibition of growth at 10 µM [42] of 7.32% and an inhibition of growth at 10 µM [9] of 12.6%. The inhibition of growth at 10 µM [43] was 30.7%, the inhibition of growth at 10 µM [10] was 6.95% and the inhibition of growth at 10 µM [11] was 23.3%. For the same compound, the inhibition of growth at 10 µM [12] was 25.6%, the inhibition of growth at 10 µM [44] was 14.1% and the inhibition of growth at 10 µM [13] was 29.1%. It also gave an inhibition of growth at 10 µM [45] of 20.6%, an inhibition of growth at 10 µM [46] of 8.97% and an inhibition of growth at 10 µM [14] of 14.7%. It also gave an inhibition of growth at 10 µM [47] of 6.75%, an inhibition of growth at 10 µM [48] of 8.03% and an inhibition of growth at 10 µM [49] of 20.4%. For the same compound, the inhibition of growth at 10 µM [15] was 18.3%, the IC50 [16] was greater than 100 µM and the IC50 [17] was greater than 100 µM. For the same compound, the IC50 [18] was greater than 100 µM and the inhibition of growth at 10 µM [19] was 23.6%.
